These results are taken from patent publication US6452009B1, “4-unsubstituted dihydroisoquinolinone derivatives and combinatorial libraries thereof” (Lion Bioscience AG, priority 1999, dated 2002).

The subject of this test is Streptococcus pyogenes (ATCC #97-03 14289). The test can be described thus: Anti-microbial screen (growth inhibition, OD 570 nm). The test is classed as cell-based. The following applies: ATCC97, compounds assayed at 170 μg/ml, growth in Todd Hewitt Broth read at 570 nm at 4 hrs, read-out: % Inhibition. On the procedure:
Streptococcus pyogenes (ATCC #97-03 14289) are grown in Todd Hewitt Broth (THB) (Difco Laboratories #0492-17-6) overnight until they reach an optical density of (OD=0.636@570 nm) by reading 0.1 ml in a 96 well microtiter plate in a Molecular Devices Thermomax. This preparation is kept frozen as stocks in 30% v/v glycerol in 1.5 ml aliquots at −70° C. until use. Prior to screening, 1.5 ml aliquots are thawed and diluted into 50 ml THB. 200 μl of this dilution is added to 92 wells of microtiter plate. To three wells THB (200 μl) is added to serve as a blank and a sterility control. Test compounds in DMSO and appropriate concentrations of DMSO are added to Growth/Solvent Controls at 0 time. Plates are read at 0 time at 570 nm in the Molecular Devices plate reader to obtain compounds correction factors for insoluble or colored compounds. Plates are read again at 4 hrs.
Compounds are assayed at a concentration of 170 μg/ml. Percent inhibition for each compound is calculated using the following formulae:
Color correct=(O.D. 0 hr −Blank 0 hr)—(Solvent Control 0 hr−Blank 0 hr)
% Inhibition=100−(O.D. test compound 4 hr−Blank 4 hr−color correct) divided by (O.D. growth/solvent control 4 hr−Blank 4 hr)
By inhibition is commonly meant the change of the read-out against control, counted positive when it falls. Regarding `CN(C)CCN(CC(N)=O)C(=O)c1ccc(CN2C(=O)c3cc(NC(=O)c4c(F)cccc4F)ccc3CC2c2ccc(C(C)(C)C)cc2)cc1` (stereo not drawn), the inhibition at 170 µg/mL stood at 99%.

Consider `CN(C)CCN(CC(N)=O)C(=O)c1ccc(CN2C(=O)c3cc(NC(=O)/C=C/c4ccccc4C(F)(F)F)ccc3CC2c2ccc(F)c(F)c2)cc1` (stereo not drawn), for which the inhibition at 170 µg/mL amounted to 98.4%.

`CCCCCCCC(=O)Nc1ccc2c(c1)C(=O)N(CCC(=O)N(CCN(C)C)CC(N)=O)C(c1ccc(C)cc1)C2` (stereo not drawn): the inhibition at 170 µg/mL stood at 99.9%.

For the compound `CN(C)CCN(CC(N)=O)C(=O)CCN1C(=O)c2cc(NC(=O)c3cnccn3)ccc2CC1c1cccc2ccccc12` (stereo not drawn), the inhibition at 170 µg/mL turned out to be 99%.

Take `CN(C)CCN(CC(N)=O)C(=O)CCN1C(=O)c2cc(NC(=O)c3cccc(C(F)(F)F)c3F)ccc2CC1c1ccccc1` (stereo not drawn): the inhibition at 170 µg/mL stood at 99.2%.

Take `CN(C)CCN(CC(N)=O)C(=O)c1ccc(CN2C(=O)c3cc(NC(=O)CCC4CCCC4)ccc3CC2c2ccc(C(F)(F)F)cc2)cc1` (stereo not drawn): the inhibition at 170 µg/mL turned out to be 99%.

With `COc1cc(OC)cc(C2Cc3ccc(NC(=O)c4ccc(OC(F)(F)F)cc4)cc3C(=O)N2CCC(=O)N(CCN(C)C)CC(N)=O)c1` (stereo not drawn), the inhibition at 170 µg/mL came out at 99.5%.

`NC(=O)CN(C(=O)CCN1C(=O)c2cc(NC(=O)/C=C/c3ccccc3C(F)(F)F)ccc2CC1c1cccc(Oc2ccc(Cl)c(Cl)c2)c1)C1CC1` (stereo not drawn): the inhibition at 170 µg/mL was determined as 98.5%.

For `CC1CCC(C(=O)Nc2ccc3c(c2)C(=O)N(Cc2ccc(C(=O)N(CCN(C)C)CC(N)=O)cc2)C(c2cccc(C#N)c2)C3)CC1` (stereo not drawn), the inhibition at 170 µg/mL was 98.5%.

On to `CCCCCCCC(=O)Nc1ccc2c(c1)C(=O)N(CCC(=O)N(CC(N)=O)Cc1cccc(C(F)(F)F)c1)C(c1ccc(OCCCN(C)C)cc1)C2` (stereo not drawn), for which the inhibition at 170 µg/mL amounted to 98.5%.

Regarding `CN(C)CCN(CC(N)=O)C(=O)CCN1C(=O)c2cc(NC(=O)c3cccc(C(F)(F)F)c3F)ccc2CC1c1ccc(C(F)(F)F)cc1` (stereo not drawn), the inhibition at 170 µg/mL worked out at 99.9%.

With `CN(C)CCN(CC(N)=O)C(=O)c1ccc(CN2C(=O)c3cc(NC(=O)c4cc(C(F)(F)F)cc(C(F)(F)F)c4)ccc3CC2c2ncc[nH]2)cc1` (stereo not drawn), the inhibition at 170 µg/mL stood at 98.7%.

Take `CN(C)CCN(CC(N)=O)C(=O)CCN1C(=O)c2cc(NC(=O)CC3CC4CCC3C4)ccc2CC1c1ccc(C(F)(F)F)cc1` (stereo not drawn): the inhibition at 170 µg/mL turned out to be 99.2%.

Take `CN(C)CCN(CC(N)=O)C(=O)CCN1C(=O)c2cc(NC(=O)C3(c4ccccc4)CC3)ccc2CC1c1ccccc1` (stereo not drawn): the inhibition at 170 µg/mL was 99.5%.

`CN(C)CCN(CC(N)=O)C(=O)CCN1C(=O)c2cc(NC(=O)c3ccc(I)cc3)ccc2CC1c1ccccn1` (stereo not drawn): the inhibition at 170 µg/mL came out at 99.2%.

For the compound `CN(C)CCN(CC(N)=O)C(=O)c1ccc(CN2C(=O)c3cc(NC(=O)CCC4CCCCC4)ccc3CC2c2ccc(C(F)(F)F)cc2)cc1` (stereo not drawn), the inhibition at 170 µg/mL was 99.6%.

As to `CN(C)CCN(CC(N)=O)C(=O)CCN1C(=O)c2cc(NC(=O)CC3CC4CCC3C4)ccc2CC1c1ccc(F)c(F)c1` (stereo not drawn), the inhibition at 170 µg/mL is 98.4%.

On to `CCCN(CC(N)=O)C(=O)c1ccc(CN2C(=O)c3cc(NC(=O)c4ccc(OC(F)(F)F)cc4)ccc3CC2c2ccc(OCCCN(C)C)cc2)cc1` (stereo not drawn), for which the inhibition at 170 µg/mL is 99.7%.

For the compound `Cc1ccc(C2Cc3ccc(NC(=O)c4cc(C(F)(F)F)cc(C(F)(F)F)c4)cc3C(=O)N2CCC(=O)N(CCN(C)C)CC(N)=O)cc1` (stereo not drawn), the inhibition at 170 µg/mL worked out at 99.2%.

For `COc1cc(OC)cc(C2Cc3ccc(NC(=O)CC(C)CC(C)(C)C)cc3C(=O)N2CCC(=O)N(CCN(C)C)CC(N)=O)c1` (stereo not drawn), the inhibition at 170 µg/mL came to 99%.

As to `CN(C)CCN(CC(N)=O)C(=O)c1ccc(CN2C(=O)c3cc(NC(=O)c4ccc(OC(F)(F)F)cc4)ccc3CC2c2ccccn2)cc1` (stereo not drawn), the inhibition at 170 µg/mL was 99.5%.

`Cc1ccc(C2Cc3ccc(NC(=O)c4cccnc4Cl)cc3C(=O)N2Cc2ccc(C(=O)N(CCN(C)C)CC(N)=O)cc2)cc1` (stereo not drawn): the inhibition at 170 µg/mL is 98.8%.

With `CCCCCC/C=C/C(=O)Nc1ccc2c(c1)C(=O)N(CCC(=O)N(CCN(C)C)CC(N)=O)C(c1ncc[nH]1)C2` (stereo not drawn), the inhibition at 170 µg/mL stood at 99.4%.

Consider `COc1cc(OC)cc(C2Cc3ccc(NC(=O)c4ccc(F)c(F)c4)cc3C(=O)N2CCC(=O)N(CCN(C)C)CC(N)=O)c1` (stereo not drawn), for which the inhibition at 170 µg/mL came out at 99.5%.

Take `CCCCCC/C=C/C(=O)Nc1ccc2c(c1)C(=O)N(Cc1ccc(C(=O)N(CCOC)CC(N)=O)cc1)C(c1ccc(C(C)(C)C)cc1)C2` (stereo not drawn): the inhibition at 170 µg/mL was 98.2%.

On to `CN(C)CCN(CC(N)=O)C(=O)c1ccc(CN2C(=O)c3cc(NC(=O)CCC4CCCC4)ccc3CC2c2ccc(F)c(F)c2)cc1` (stereo not drawn), for which the inhibition at 170 µg/mL was determined as 99.9%.

As for `CN(C)CCCOc1ccc(C2Cc3ccc(NC(=O)c4cc(C(F)(F)F)cc(C(F)(F)F)c4)cc3C(=O)N2Cc2ccc(C(=O)N(CC(N)=O)C3CC3)cc2)cc1` (stereo not drawn), the inhibition at 170 µg/mL stood at 99.9%.

On to `Cc1nnsc1C(=O)Nc1ccc2c(c1)C(=O)N(CCC(=O)N(CCN(C)C)CC(N)=O)C(c1cccc3ccccc13)C2` (stereo not drawn), for which the inhibition at 170 µg/mL amounted to 99%.

`COc1ccc(Br)c(C(=O)Nc2ccc3c(c2)C(=O)N(Cc2ccc(C(=O)N(CCN(C)C)CC(N)=O)cc2)C(c2ccc(F)c(F)c2)C3)c1` (stereo not drawn): the inhibition at 170 µg/mL was 99.5%.

In the case of `CN(C)CCN(CC(N)=O)C(=O)CCN1C(=O)c2cc(NC(=O)c3ccc(I)cc3)ccc2CC1c1ccc2ccccc2n1` (stereo not drawn), the inhibition at 170 µg/mL came out at 99.5%.

In the case of `CCCC(CCC)C(=O)Nc1ccc2c(c1)C(=O)N(CCC(=O)N(CCN(C)C)CC(N)=O)C(c1cc(OC)cc(OC)c1)C2` (stereo not drawn), the inhibition at 170 µg/mL came out at 98.2%.

For `CN(C)CCN(CC(N)=O)C(=O)c1ccc(CN2C(=O)c3cc(NC(=O)CC4CC5CCC4C5)ccc3CC2c2ccc(C(F)(F)F)cc2)cc1` (stereo not drawn), the inhibition at 170 µg/mL is 98.1%.

On to `CC(CC(=O)Nc1ccc2c(c1)C(=O)N(Cc1ccc(C(=O)N(CCN(C)C)CC(N)=O)cc1)C(c1ccc(C(F)(F)F)cc1)C2)CC(C)(C)C` (stereo not drawn), for which the inhibition at 170 µg/mL turned out to be 98.7%.
